Laboratory results: US5843889A, “Glycopeptide antibiotic derivatives” (Eli Lilly and Company, priority 1997, dated 1998)
≈ marks a conversion by molar mass, not a printed value.

How the values were obtained:
Test in all cases: MIC, standard broth micro-dilution assay
Type in all cases: cell-based
Entercoccus faecalis 276 = tested on: Entercoccus faecalis 276
Description: (§1) The formula I compounds have in vitro and in vivo activity against Gram-positive pathogenic bacteria. The MIC's were determined using a standard broth micro-dilution assay.

[1] = tested on: Entercoccus faecalis 2041
Description: as §1

[2] = tested on: Entercoccus gallinarum 245
Description: as §1

MIC (Entercoccus faecalis 276) [µg/mL]	MIC [1] [µg/mL]	MIC [2] [µg/mL]	Structure (SMILES)
1 (≈ 0.571 µM)			CNC(CC(C)C)C(=O)NC1C(=O)NC(CC(N)=O)C(=O)NC2C(=O)NC3C(=O)NC(C(=O)NC(C(=O)O)c4cc(O)cc(O)c4-c4cc3ccc4O)C(OC3CC(C)(N)C(O)C(C)O3)c3ccc(c(Cl)c3)Oc3cc2cc(c3OC2OC(CO)C(O)C(O)C2OC2CC(C)(NCc3ccc(C(F)(F)F)cc3)C(O)C(C)O2)Oc2ccc(cc2Cl)C1O (stereo not drawn) [Compound 37, 4-trifluoromethylbenzyl]
0.5 (≈ 0.274 µM)			CNC(CC(C)C)C(=O)NC1C(=O)NC(CC(N)=O)C(=O)NC2C(=O)NC3C(=O)NC(C(=O)NC(C(=O)O)c4cc(O)cc(O)c4-c4cc3ccc4O)C(OC3CC(C)(N)C(O)C(C)O3)c3ccc(c(Cl)c3)Oc3cc2cc(c3OC2OC(CO)C(O)C(O)C2OC2CC(C)(NCc3ccc(-c4ccc(C(F)(F)F)cc4)cc3)C(O)C(C)O2)Oc2ccc(cc2Cl)C1O (stereo not drawn) [Compound 216, 4-[4-trifluromethylphenyl]benzyl]
≤ 0.06			CNC(CC(C)C)C(=O)NC1C(=O)NC(CC(N)=O)C(=O)NC2C(=O)NC3C(=O)NC(C(=O)NC(C(=O)O)c4cc(O)cc(O)c4-c4cc3ccc4O)C(OC3CC(C)(N)C(O)C(C)O3)c3ccc(c(Cl)c3)Oc3cc2cc(c3OC2OC(CO)C(O)C(O)C2OC2CC(C)(NCc3ccncc3)C(O)C(C)O2)Oc2ccc(cc2Cl)C1O (stereo not drawn) [Compound 26, 4-pyridylmethyl]
0.5 (≈ 0.283 µM)			CNC(CC(C)C)C(=O)NC1C(=O)NC(CC(N)=O)C(=O)NC2C(=O)NC3C(=O)NC(C(=O)NC(C(=O)O)c4cc(O)cc(O)c4-c4cc3ccc4O)C(OC3CC(C)(N)C(O)C(C)O3)c3ccc(c(Cl)c3)Oc3cc2cc(c3OC2OC(CO)C(O)C(O)C2OC2CC(C)(NCc3ccc(OCCCC#N)cc3)C(O)C(C)O2)Oc2ccc(cc2Cl)C1O (stereo not drawn) [Compound 55, 4-[3-cyanopropoxy]benzyl]
0.26 (≈ 0.148 µM)			CNC(CC(C)C)C(=O)NC1C(=O)NC(CC(N)=O)C(=O)NC2C(=O)NC3C(=O)NC(C(=O)NC(C(=O)O)c4cc(O)cc(O)c4-c4cc3ccc4O)C(OC3CC(C)(N)C(O)C(C)O3)c3ccc(c(Cl)c3)Oc3cc2cc(c3OC2OC(CO)C(O)C(O)C2OC2CC(C)(NCc3c(OC)ccc4ccccc34)C(O)C(C)O2)Oc2ccc(cc2Cl)C1O (stereo not drawn) [Compound 9, 2-methoxy-1-naphthylmethyl]
	≤ 0.06	2 (≈ 1.17 µM)	CNC(CC(C)C)C(=O)NC1C(=O)NC(CC(N)=O)C(=O)NC2C(=O)NC3C(=O)NC(C(=O)NC(C(=O)O)c4cc(O)cc(O)c4-c4cc3ccc4O)C(OC3CC(C)(N)C(O)C(C)O3)c3ccc(c(Cl)c3)Oc3cc2cc(c3OC2OC(CO)C(O)C(O)C2OC2CC(C)(NCCCC3CCCC3)C(O)C(C)O2)Oc2ccc(cc2Cl)C1O (stereo not drawn) [Compound 208, 3-[cyclopentyl]propyl]
	≤ 0.06	8 (≈ 4.63 µM)	CNC(CC(C)C)C(=O)NC1C(=O)NC(CC(N)=O)C(=O)NC2C(=O)NC3C(=O)NC(C(=O)NC(C(=O)O)c4cc(O)cc(O)c4-c4cc3ccc4O)C(OC3CC(C)(N)C(O)C(C)O3)c3ccc(c(Cl)c3)Oc3cc2cc(c3OC2OC(CO)C(O)C(O)C2OC2CC(C)(NCC3=CCC(C(C)C)CC3)C(O)C(C)O2)Oc2ccc(cc2Cl)C1O (stereo not drawn) [Compound 171, 1-cyclohexenyl-4-isopropylmethyl]
	≤ 0.06	1 (≈ 0.559 µM)	CN[C@H](CC(C)C)C(=O)N[C@H]1C(=O)N[C@@H](CC(N)=O)C(=O)N[C@H]2C(=O)N[C@H]3C(=O)N[C@H](C(=O)N[C@H](C(=O)O)c4cc(O)cc(O)c4-c4cc3ccc4O)[C@H](O[C@H]3C[C@](C)(N)[C@@H](O)[C@H](C)O3)c3ccc(c(Cl)c3)Oc3cc2cc(c3O[C@@H]2O[C@H](CO)[C@@H](O)[C@H](O)[C@H]2O[C@H]2C[C@](C)(NCc3ccc(Oc4ccc(C)cc4)cc3)[C@@H](O)[C@H](C)O2)Oc2ccc(cc2Cl)[C@H]1O [Compound 95, 4-[4-methylphenoxy]benzyl]
	≤ 0.06	≤ 0.06	CNC(CC(C)C)C(=O)NC1C(=O)NC(CC(N)=O)C(=O)NC2C(=O)NC3C(=O)NC(C(=O)NC(C(=O)O)c4cc(O)cc(O)c4-c4cc3ccc4O)C(OC3CC(C)(N)C(O)C(C)O3)c3ccc(c(Cl)c3)Oc3cc2cc(c3OC2OC(CO)C(O)C(O)C2OC2CC(C)(NCc3ccc(I)s3)C(O)C(C)O2)Oc2ccc(cc2Cl)C1O (stereo not drawn) [Compound 74, 5-iodo-2-thienylmethyl]
	≤ 0.06	1 (≈ 0.566 µM)	C=CCCCOc1ccc(CNC2(C)CC(OC3C(Oc4c5cc6cc4Oc4ccc(cc4Cl)C(OC4CC(C)(N)C(O)C(C)O4)C4NC(=O)C(NC(=O)C6NC(=O)C(CC(N)=O)NC(=O)C(NC(=O)C(CC(C)C)NC)C(O)c6ccc(c(Cl)c6)O5)c5ccc(O)c(c5)-c5c(O)cc(O)cc5C(C(=O)O)NC4=O)OC(CO)C(O)C3O)OC(C)C2O)cc1 (stereo not drawn) [Compound 226, 4-[4-pentenyloxy]benzyl]
	≤ 0.06	2 (≈ 1.12 µM)	CNC(CC(C)C)C(=O)NC1C(=O)NC(CC(N)=O)C(=O)NC2C(=O)NC3C(=O)NC(C(=O)NC(C(=O)O)c4cc(O)cc(O)c4-c4cc3ccc4O)C(OC3CC(C)(N)C(O)C(C)O3)c3ccc(c(Cl)c3)Oc3cc2cc(c3OC2OC(CO)C(O)C(O)C2OC2CC(C)(NCc3ccc(-c4ccc(C)c(C)c4)cc3)C(O)C(C)O2)Oc2ccc(cc2Cl)C1O (stereo not drawn) [Compound 221, 4-[3,4-dimethylphenyl]benzyl]
2 (≈ 1.1 µM)			CNC(CC(C)C)C(=O)NC1C(=O)NC(CC(N)=O)C(=O)NC2C(=O)NC3C(=O)NC(C(=O)NC(C(=O)O)c4cc(O)cc(O)c4-c4cc3ccc4O)C(OC3CC(C)(N)C(O)C(C)O3)c3ccc(c(Cl)c3)Oc3cc2cc(c3OC2OC(CO)C(O)C(O)C2OC2CC(C)(NCc3ccc(-c4ccc(OC)c(OC)c4)cc3)C(O)C(C)O2)Oc2ccc(cc2Cl)C1O (stereo not drawn) [Compound 215, 4-[3,4-dimethoxyphenyl]benzyl]
	0.5 (≈ 0.278 µM)	0.5 (≈ 0.278 µM)	CCN(CC)CCOc1ccc(CNC2(C)CC(OC3C(Oc4c5cc6cc4Oc4ccc(cc4Cl)C(OC4CC(C)(N)C(O)C(C)O4)C4NC(=O)C(NC(=O)C6NC(=O)C(CC(N)=O)NC(=O)C(NC(=O)C(CC(C)C)NC)C(O)c6ccc(c(Cl)c6)O5)c5ccc(O)c(c5)-c5c(O)cc(O)cc5C(C(=O)O)NC4=O)OC(CO)C(O)C3O)OC(C)C2O)cc1 (stereo not drawn) [Compound 83, 4-[2-[N,N-diethylamino]ethoxy]benzyl]
	≤ 0.06	8 (≈ 4.55 µM)	CNC(CC(C)C)C(=O)NC1C(=O)NC(CC(N)=O)C(=O)NC2C(=O)NC3C(=O)NC(C(=O)NC(C(=O)O)c4cc(O)cc(O)c4-c4cc3ccc4O)C(OC3CC(C)(N)C(O)C(C)O3)c3ccc(c(Cl)c3)Oc3cc2cc(c3OC2OC(CO)C(O)C(O)C2OC2CC(C)(NCc3cncc(-c4ccccc4)c3)C(O)C(C)O2)Oc2ccc(cc2Cl)C1O (stereo not drawn) [Compound 101, 3-[5-phenyl]pyridinylmethyl]
	≤ 0.06	2 (≈ 1.09 µM)	CNC(CC(C)C)C(=O)NC1C(=O)NC(CC(N)=O)C(=O)NC2C(=O)NC3C(=O)NC(C(=O)NC(C(=O)O)c4cc(O)cc(O)c4-c4cc3ccc4O)C(OC3CC(C)(N)C(O)C(C)O3)c3ccc(c(Cl)c3)Oc3cc2cc(c3OC2OC(CO)C(O)C(O)C2OC2CC(C)(NCc3ccc(OCc4ccc([N+](=O)[O-])cc4)cc3)C(O)C(C)O2)Oc2ccc(cc2Cl)C1O (stereo not drawn) [Compound 131, 4-[4-nitrobenzyloxy]benzyl]
	8 (≈ 4.36 µM)	4 (≈ 2.18 µM)	CCCCCC1CCC(c2ccc(CNC3(C)CC(OC4C(Oc5c6cc7cc5Oc5ccc(cc5Cl)C(OC5CC(C)(N)C(O)C(C)O5)C5NC(=O)C(NC(=O)C7NC(=O)C(CC(N)=O)NC(=O)C(NC(=O)C(CC(C)C)NC)C(O)c7ccc(c(Cl)c7)O6)c6ccc(O)c(c6)-c6c(O)cc(O)cc6C(C(=O)O)NC5=O)OC(CO)C(O)C4O)OC(C)C3O)cc2)CC1 (stereo not drawn) [Compound 34, 4-[4-pentylcyclohexyl]benzyl]
	≤ 0.06	2 (≈ 1.14 µM)	CNC(CC(C)C)C(=O)NC1C(=O)NC(CC(N)=O)C(=O)NC2C(=O)NC3C(=O)NC(C(=O)NC(C(=O)O)c4cc(O)cc(O)c4-c4cc3ccc4O)C(OC3CC(C)(N)C(O)C(C)O3)c3ccc(c(Cl)c3)Oc3cc2cc(c3OC2OC(CO)C(O)C(O)C2OC2CC(C)(NCCCCc3ccc(OC)cc3)C(O)C(C)O2)Oc2ccc(cc2Cl)C1O (stereo not drawn) [Compound 172, 4-[4-methoxyphenyl]butyl]
	≤ 0.06	2 (≈ 1.08 µM)	CN[C@H](CC(C)C)C(=O)N[C@H]1C(=O)N[C@@H](CC(N)=O)C(=O)N[C@H]2C(=O)N[C@H]3C(=O)N[C@H](C(=O)N[C@H](C(=O)O)c4cc(O)cc(O)c4-c4cc3ccc4O)[C@H](O[C@H]3C[C@](C)(N)[C@@H](O)[C@H](C)O3)c3ccc(c(Cl)c3)Oc3cc2cc(c3O[C@@H]2O[C@H](CO)[C@@H](O)[C@H](O)[C@H]2O[C@H]2C[C@](C)(NCc3ccc(Oc4ccc(Cl)cc4)c([N+](=O)[O-])c3)[C@@H](O)[C@H](C)O2)Oc2ccc(cc2Cl)[C@H]1O [Compound 94, 4-[4-chlorophenoxy]-3-nitrobenzyl]
	≤ 0.06	1 (≈ 0.572 µM)	CNC(CC(C)C)C(=O)NC1C(=O)NC(CC(N)=O)C(=O)NC2C(=O)NC3C(=O)NC(C(=O)NC(C(=O)O)c4cc(O)cc(O)c4-c4cc3ccc4O)C(OC3CC(C)(N)C(O)C(C)O3)c3ccc(c(Cl)c3)Oc3cc2cc(c3OC2OC(CO)C(O)C(O)C2OC2CC(C)(NCCCCC#Cc3ccccc3)C(O)C(C)O2)Oc2ccc(cc2Cl)C1O (stereo not drawn) [Compound 235, 6-phenyl-5-hexynyl]
	≤ 0.06	1 (≈ 0.553 µM)	CNC(CC(C)C)C(=O)NC1C(=O)NC(CC(N)=O)C(=O)NC2C(=O)NC3C(=O)NC(C(=O)NC(C(=O)O)c4cc(O)cc(O)c4-c4cc3ccc4O)C(OC3CC(C)(N)C(O)C(C)O3)c3ccc(c(Cl)c3)Oc3cc2cc(c3OC2OC(CO)C(O)C(O)C2OC2CC(C)(NCC3CCC(COCc4ccccc4)CC3)C(O)C(C)O2)Oc2ccc(cc2Cl)C1O (stereo not drawn) [Compound 239]
	≤ 0.06	1 (≈ 0.554 µM)	CNC(CC(C)C)C(=O)NC1C(=O)NC(CC(N)=O)C(=O)NC2C(=O)NC3C(=O)NC(C(=O)NC(C(=O)O)c4cc(O)cc(O)c4-c4cc3ccc4O)C(OC3CC(C)(N)C(O)C(C)O3)c3ccc(c(Cl)c3)Oc3cc2cc(c3OC2OC(CO)C(O)C(O)C2OC2CC(C)(NCc3ccc(Oc4ccc(OC)cc4)cc3)C(O)C(C)O2)Oc2ccc(cc2Cl)C1O (stereo not drawn) [Compound 98, 4-[4-methoxyphenoxy]benzyl]
